Reference: patent EP2165698B1, “Cosmetic composition designed to protect damaged skin” (Universkin, priority 2008, dated 2016)
Where a SMILES comes first, the peptide text is derived from it.

Experiments:
[1] = system: fibroblastes de lignée humaine; assay: Production of extracellular matrix (MEC) proteins by fibroblasts, immunofluorescence / confocal microscopy; conditions: tripeptide-1 à 10^-7M vs culture without peptide
Text: Exemple 1 Etude du tripeptide-1® sur la production de protéines de la MEC par les fibroblastes par immunofluorescence.
• ▪ Matériel : fibroblastes de lignée humaine. • ▪ Protocole : les fibroblastes sont mis en culture en présence ou en absence du tripeptide-1® à 10^-7M. • ▪ Etude microscopique par microscopie confocale.

[2] = system: kératinocytes de lignée NCTC
[3] = system: Fibroblastes de lignée MRC5

Q: `NCCCC[C@H](NC(=O)[C@H](Cc1c[nH]cn1)NC(=O)CN)C(=O)O` [tripeptide-1, H-Gly-His-Lys-OH] (H-Gly-His-Lys-OH) was tested. Which “AUGMENTATION % - Collagène de type I” value [1] did it give?
A: + 305%

Q: What about the “AUGMENTATION % - Collagène de type II” value [1] of the same compound?
A: + 105%

Q: And the “AUGMENTATION % - Elastine” value [1]?
A: + 15%

Q: And the “AUGMENTATION % - Fibronectine” value [1]?
A: + 155%

Q: What about the “AUGMENTATION % - Laminine” value [1] of the same compound?
A: + 85%

Q: What does the source list for `CC/C=C\C/C=C\C/C=C\CCCCCCCC(=O)O` [acide alpha-linolénique]?
A: acide EPA dans les cellules de kératinocytes [2]: apparition de l'acide EPA; acide alpha-linolénique dans le surnageant [2]: aucune trace; acide alpha-linolénique dans les cellules de kératinocytes [2]: quantités importantes; acides EPA et DHA dans le surnageant [2]: Apparition des acides EPA et DHA; acide alpha-linolénique dans le surnageant [3]: plus faible quantité que la quantité de départ; acides EPA et DHA dans le milieu surnageant [3]: Apparition des acides EPA et DHA
